# From US8389679B2, “Targeted antimicrobial moieties” (priority 2009, dated 2013)
# “Also recorded” adds a separate entry of the source.
# System: target microorganisms
# Experiment: Screen of synthesized peptides for binding to target microorganisms (targeting peptides, Tables 2 and 3)
# Conditions: microorganism(s) the targeting peptide was identified as binding to (Table 3)
# Method: Once noted, these peptides were batch synthesized on a multiplex peptide synthesizer, yielding 5-10 mg of each peptide that could readily be screened for biological activity (e.g., binding activity and/or antimicrobial activity.
# Other suitable targeting peptides include the peptides that have been identified as binding to particular target organisms as shown in Table 3 and/or Table 4.
row,Substance,Target(s)
1,1T-1 (YVNYNQSFNSGW; synthetic novel tartgeting peptide IT-1),S. mutans
2,1T-2 (NIFEYFLE; synthetic novel tartgeting peptide IT-2),S. gordonii; also recorded: S. mitis; also recorded: S. oralis; also recorded: V. atypica; also recorded: Lactobacillus casei; also recorded: Saliva-derived biofilms; also recorded: S. mutans; also recorded: S. sanguinis
3,1T-3 (VLGIAGGLDAYGELVGGN; synthetic novel tartgeting peptide IT-3),S. mutans; also recorded: S. gordonii
4,1T-4 (LDAYGELVGGN; synthetic novel tartgeting peptide IT-4),S. mutans; also recorded: S. gordonii; also recorded: S. sanguinis; also recorded: S. oralis; also recorded: V. atypica; also recorded: L. casei
5,1T-5 (LGPIAGAAIGWDLGAISGAGLGWANFCQ; synthetic novel tartgeting peptide IT-5),S. mutans; also recorded: S. sanguinis
6,1T-6 (KFINGVLSQFVLERK; synthetic novel tartgeting peptide IT-6),S. mutans
7,1T-7 (SQRIIEPVKSPQPYPGFSVS; synthetic novel tartgeting peptide IT-7),Myxococcus xanthus
8,1T-8 (FSVAACGEQRAVTFVLLIEDLI; synthetic novel tartgeting peptide IT-8),M. xanthus
9,1T-9 (WAWAESPRCVSTRSNIHALAFRVEVAALT; synthetic novel tartgeting peptide IT-9),M. xanthus
10,1T-10 (SPAGLPGDGDEA; synthetic novel tartgeting peptide IT-10),M. xanthus
11,1T-11 (RISE; synthetic novel tartgeting peptide IT-11),S. mutans; also recorded: S. epidermidis; also recorded: P. aeruginosa
12,1T-12 (FGNIFKGLKDVIETIVKWTAAK; synthetic novel tartgeting peptide IT-12),Corynebacterium; also recorded: xerosis; also recorded: striatum; also recorded: S. epidermidis; also recorded: S. mutans
13,1T-13 (FRSPCINNNSLQPPGVYPAR; synthetic novel tartgeting peptide IT-13),S. aureus; also recorded: S. epidermidis; also recorded: P. aeruginosa
14,1T-14 (ALAGLAGLISGK; synthetic novel tartgeting peptide IT-14),S. mutans; also recorded: S. aureus; also recorded: S. epidermidis; also recorded: C. xerosis
15,1T-15 (DVILRVEAQ; synthetic novel tartgeting peptide IT-15),S. mutans
16,1T-16 (IDMR; synthetic novel tartgeting peptide IT-16),P. aeruginosa
17,1T-17 (NNAIVYIS; synthetic novel tartgeting peptide IT-17),S. mutans
18,1T-18 (YSKTLHFAD; synthetic novel tartgeting peptide IT-18),S. aureus; also recorded: S. epidermidis; also recorded: C. striatum; also recorded: P. aeruginosa
19,1T-19 (PGAFRNPQMPRG; synthetic novel tartgeting peptide IT-19),S. aureus; also recorded: S. epidermidis; also recorded: P. aeruginosa
20,1T-20 (PALVDLSNKEAVWAVLDDHS; synthetic novel tartgeting peptide IT-20),S. mutans; also recorded: P. aeruginosa
21,1T-21 (YVEEAVRAALKKEARISTEDTPVNLPSFDC; synthetic novel tartgeting peptide IT-21),S. mutans; also recorded: P. aeruginosa
22,1T-22 (VPLDDGTRRPEVARNRDKDRED; synthetic novel tartgeting peptide IT-22),S. epidermidis; also recorded: P. aeruginosa
23,1T-23 (PALVDLSNKEAVWAVLDDHS; synthetic novel tartgeting peptide IT-23),S. mutans; also recorded: P. aeruginosa
24,1T-24 (EEAEEKLAEVSQAVKRLVR; synthetic novel tartgeting peptide IT-24),P. aeruginosa
25,1T-25 (VGLDVSVLVLFFGLQLLSVLLGAMIR; synthetic novel tartgeting peptide IT-25),S. aureus; also recorded: S. epidermidis; also recorded: C. xerosis; also recorded: C. striatum; also recorded: P. aeruginosa
26,1T-26 (LTILPTTFFAIIVPILAVAFIAYSGFKIKGIVEHKDQW; synthetic novel tartgeting peptide IT-26),jeikeium; also recorded: C. xerosis; also recorded: C. striatum; also recorded: P. aeruginosa; also recorded: S. mutans; also recorded: S. aureus; also recorded: S. epidermidis; also recorded: Corynebacterium

row,Substance,Target(s)
1,1T-27 (ALFVSLEQFLVVVAKSVFALCHSGTLS; synthetic novel tartgeting peptide IT-27),S. mutans; also recorded: S. aureus; also recorded: S. epidermidis; also recorded: C. jeikeium; also recorded: C. xerosis; also recorded: C. striatum; also recorded: P. aeruginosa
2,1T-28 (VSRDEAMEFIDREWTTLQPAGKSHA; synthetic novel tartgeting peptide IT-28),P. aeruginosa
3,1T-29 (GSVIKKRRKRMSKKKHRKMLRRTRVQRRKLGK; synthetic novel tartgeting peptide IT-29),S. mutans; also recorded: S. aureus; also recorded: S. epidermidis; also recorded: C. jeikeium; also recorded: C. xerosis; also recorded: C. striatum; also recorded: P. aeruginosa
4,1T-30 (GKAKPYQVRQVLRAVDKLETRRKKGGR; synthetic novel tartgeting peptide IT-30),S. aureus; also recorded: S. epidermidis; also recorded: C. xerosis; also recorded: C. striatum; also recorded: P. aeruginosa
5,1T-31 (NATGTDIGEVTLTLGRFS; synthetic novel tartgeting peptide IT-31),S. mutans; also recorded: P. aeruginosa
6,1T-32 (VSFLAGWLCLGLAAWRLGNA; synthetic novel tartgeting peptide IT-32),S. mutans
7,1T-33 (VRTLTILVIFIFNYLKSISYKLKQPFENNLAQSMISI; synthetic novel tartgeting peptide IT-33),S. aureus; also recorded: S. epidermidis; also recorded: C. jeikeium; also recorded: C. xerosis; also recorded: C. striatum; also recorded: P. aeruginosa
8,1T-34 (AFWLNILLTLLGYIPGIVHAVYIIAKR; synthetic novel tartgeting peptide IT-34),S. aureus; also recorded: S. epidermidis; also recorded: C. jeikeium; also recorded: C. xerosis; also recorded: C. striatum; also recorded: P. aeruginosa
9,1T-35 (EICLTLVFPIRGSYSEAAKFPVPIHIVEDGTVELPK; synthetic novel tartgeting peptide IT-35),P. aeruginosa
10,1T-36 (VYRHLRFIDGKLVEIRLERK; synthetic novel tartgeting peptide IT-36),S. aureus; also recorded: S. epidermidis; also recorded: C. jeikeium; also recorded: C. xerosis; also recorded: C. striatum; also recorded: P. aeruginosa
11,1T-37 (YIVGALVILAVAGLIYSMLRKA; synthetic novel tartgeting peptide IT-37),S. mutans; also recorded: S. aereus; also recorded: S. epidermidis; also recorded: C. jeikeium; also recorded: C. xerosis; also recorded: C. striatum; also recorded: P. aeruginosa
12,1T-38 (VMFVLTRGRSPRPMIPAY; synthetic novel tartgeting peptide IT-38),S. mutans; also recorded: S. aereus; also recorded: S. epidermidis; also recorded: C. jeikeium; also recorded: C. xerosis; also recorded: C. striatum; also recorded: P. aeruginosa
13,1T-39 (FGFCVWMYQLLAGPPGPPA; synthetic novel tartgeting peptide IT-39),S. mutans; also recorded: P. aeruginosa
14,1T-40 (QRVSLWSEVEHEFR; synthetic novel tartgeting peptide IT-40),S. mutans; also recorded: P. aeruginosa
15,1T-41 (KRGSKIVIAIAVVLIVLAGVWVW; synthetic novel tartgeting peptide IT-41),S. mutans; also recorded: S. aureus; also recorded: S. epidermidis; also recorded: C. jeikeium; also recorded: C. striatum; also recorded: P. aeruginosa
16,1T-42 (TVLDWLSLALATGLFVYLLVALLRADRA; synthetic novel tartgeting peptide IT-42),S. aureus; also recorded: S. epidermidis; also recorded: C. xerosis; also recorded: C. striatum; also recorded: P. aeruginosa
17,1T-43 (DRCLSVLSWSPPKVSPLI; synthetic novel tartgeting peptide IT-43),C. jeikium; also recorded: P. aeruginosa
18,1T-44 (DPALADFAAGMRAQVRT; synthetic novel tartgeting peptide IT-44),S. mutans; also recorded: S. aureus; also recorded: S. epidermidis; also recorded: C. jeikeium; also recorded: C. striatum; also recorded: P. aeruginosa
19,1T-45 (WTKPSFTDLRLGFEVTLYFANR; synthetic novel tartgeting peptide IT-45),S. aureus; also recorded: S. epidermidis; also recorded: C. striatum; also recorded: P. aeruginosa
20,1T-46 (FSFKQRVMFRKEVERLR; synthetic novel tartgeting peptide IT-46),S. aureus; also recorded: S. epidermidis; also recorded: C. jeikeium; also recorded: C. xerosis; also recorded: C. striatum; also recorded: P. aeruginosa
21,1T-47 (VIKISVPGQVQMLIP; synthetic novel tartgeting peptide IT-47),S. mutans; also recorded: S. epidermidis; also recorded: P. aeruginosa
22,1T-48 (KLQVHHGRATHTLLLQPPLCAPGTIR; synthetic novel tartgeting peptide IT-48),S. aureus; also recorded: S. epidermidis; also recorded: C. jeikeium; also recorded: C. xerosis; also recorded: C. striatum; also recorded: P. aeruginosa
23,1T-49 (SLVRIHDQQPWVTRGAFIDAARTCS; synthetic novel tartgeting peptide IT-49),S. aureus; also recorded: S. epidermidis; also recorded: C. jeikeium; also recorded: P. aeruginosa
24,1T-50 (HSDEPIPNILFKSDSVH; synthetic novel tartgeting peptide IT-50),P. aeruginosa
25,1T-51 (GKPKRMPAEFIDGYGQALLAGA; synthetic novel tartgeting peptide IT-51),S. aureus; also recorded: P. aeruginosa
